Key:
[1] = Liquid; for mass density: Vibrating tube method
[2] = refractive index (Na D-line) (dimensionless); details: 298.15 K; 101.33 kPa; Liquid; Standard Abbe refractometry
[3] = xn = mol fraction of the nth substance listed; details: 101 kPa, Liquid, Vibrating tube method

CCCCCCCCCO [nonan-1-ol]
Details | speed of sound [m/s]
[1], 298.15 K, 101.33 kPa, Sing-around technique in a fixed-path interferometer | 1365.5

mass density [kg/m3], [1]
Details | 298.15 K | 303.15 K | 308.15 K | 313.15 K
101 kPa | – | 821.044 | 817.582 | 814.098
101.33 kPa | 824.478 | – | – | –

Details | refractive index
[2] | 1.4319

CCCCCCCCCCO [decan-1-ol] + CN(C)C=O
mass density [kg/m3], [3]
Details | x2 = 0 | x2 = 0.2361 | x2 = 0.4193 | x2 = 0.5688 | x2 = 0.6724 | x2 = 0.7496 | x2 = 0.8185 | x2 = 0.8748 | x2 = 0.923 | x2 = 0.9632
298.15 K | 826.562 | 838.6 | 851.13 | 864.685 | 876.794 | 887.827 | 899.61 | 910.986 | 922.298 | 933.094
303.15 K | 822.853 | 834.589 | 846.845 | 860.269 | 872.216 | 883.031 | 894.603 | 905.795 | 916.997 | 927.772
308.15 K | 819.427 | 830.903 | 843.033 | 856.394 | 868.282 | 879.008 | 890.399 | 901.448 | 912.559 | 923.333
313.15 K | 816.383 | 827.267 | 839.221 | 852.343 | 863.94 | 874.443 | 885.574 | 896.397 | 907.34 | 918.051

CCCCCCCCO [octan-1-ol] + CN(C)C=O
mass density [kg/m3], [3]
Details | x2 = 0 | x2 = 0.2198 | x2 = 0.3728 | x2 = 0.5208 | x2 = 0.6277 | x2 = 0.7118 | x2 = 0.7877 | x2 = 0.8519 | x2 = 0.9085 | x2 = 0.9556
298.15 K | 821.222 | 835.186 | 847.253 | 861.646 | 874.238 | 885.914 | 898.138 | 909.952 | 921.843 | 932.914
303.15 K | 818.209 | 831.811 | 843.584 | 857.568 | 869.964 | 881.458 | 893.435 | 905.109 | 916.796 | 927.592
308.15 K | 814.742 | 828.086 | 839.752 | 853.623 | 865.852 | 877.239 | 889.113 | 900.709 | 912.287 | 923.224
313.15 K | 810.629 | 823.708 | 835.263 | 849.056 | 861.125 | 872.405 | 884.137 | 895.506 | 907.01 | 917.847

Reference: the NIST ThermoML archive (doi:10.1016/j.jct.2012.11.015)
